Earlier results on two molecules are cited in patent US6011041A, “Use of anhydrovinblastine” (priority 1996, dated 2000).

For one series, the system named is tumour. The settings on record: alkaloids extracted from Vinca rosea; cited from earlier work.
The next series relates to human rhabdosarcomas. The settings on record: in vivo; cited from earlier work.
For series [1] the following is noted: humans; cited from earlier work.

With `CC[C@]12CN3CCc4c([nH]c5ccccc45)[C@@](C(=O)OC)(c4cc5c(cc4OC)N(C)[C@H]4[C@@](O)(C(=O)OC)[C@H](OC(C)=O)[C@]6(CC)C=CCN7CC[C@]54[C@@H]76)C[C@@H](C3)[C@H]1O2` [vinleurosine], in the series on tumour, the antitumour activity entry is reported as “significant antitumour activity”.
As to `CC[C@]1(O)C[C@@H]2CN(CCc3c([nH]c4ccccc34)[C@@](C(=O)OC)(c3cc4c(cc3OC)N(C)[C@H]3[C@@](O)(C(=O)OC)[C@H](OC(C)=O)[C@]5(CC)C=CCN6CC[C@]43[C@@H]65)C2)C1` [vinblastine], the “activity in human rhabdosarcomas transplanted in nude mice” value in the series on human rhabdosarcomas is listed as “not active in this system”. Besides, the dose limiting toxicity entry in series [1] is “anemia and leucopenia”. Moreover, in the series with tumour, the antitumour activity entry is on record as “significant antitumour activity”.
